Measured values from US20100240612A1, “Prenylated Bisphosphonates as Anti-tuberculosis Agents” (priority 2009, published 2010).

How the values were obtained:
[1] = target: T1, mycobacterial polyprenyl synthase (RV2361c) (Mycobacterium tuberculosis, UniProt P9WFF7); test: Test A: Inhibition of Mycobacterial Polyprenyl Synthase (RV2361c); assay type: biochemical; settings: result in words, data only in FIG. 1/FIG. 2
T1 sequence (P9WFF7 1-296): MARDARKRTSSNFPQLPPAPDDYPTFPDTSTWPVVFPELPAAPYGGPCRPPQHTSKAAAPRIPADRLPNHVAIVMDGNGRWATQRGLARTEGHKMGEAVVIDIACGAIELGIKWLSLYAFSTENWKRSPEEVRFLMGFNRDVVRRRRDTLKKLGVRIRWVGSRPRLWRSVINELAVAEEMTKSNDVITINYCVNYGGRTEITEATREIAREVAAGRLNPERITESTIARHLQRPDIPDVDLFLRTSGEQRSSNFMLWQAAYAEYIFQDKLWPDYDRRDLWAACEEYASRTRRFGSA

[2] = tested on: Mycobacterium Smegmatis (ATCC 607); test: Test B: Inhibition of Growth of the Bacterium M. Smegmatis; assay type: cell-based; settings: grown in the presence of drug for 2 days, absorbance at 540 nm or CFU; result in words, data only in FIG. 3, versus Isoniazid
Experimental: Mycobacterium Smegmatis (ATCC 607) was obtained from American Type Culture Collection and cultured in 7H9 broth (Sigma) containing ADC (Sigma), 0.5% glycerol, and 0.05% Tween-80. Bacteria were grown to log phase and then diluted, aliquoted, and grown in the presence of indicated drugs for 2 days. Growth was measured as a function of optical absorbance at 540 nm using a spectrophotometer. Alternatively, aliquots of liquid cultures were spread onto agar containing plates, which were then grown for 2 days, after which the number of colony forming units (CFU) were counted and normalized per mL.

SMILES | inhibition of purified mycobacterial polyprenyl synthase (RV2361c) [1] | inhibition of growth of the bacterium M. Smegmatis [2]
CC(C)=CCc1ccc(CC(P(=O)([O-])[O-])P(=O)([O-])[O-])cc1.[Na+].[Na+].[Na+].[Na+] [compound 13, p-Prenyl-phenethylidene bisphosphonic acid tetra sodium salt] | inhibition | –
COC(=O)c1ccccc1NC/C(C)=C/CC/C(C)=C/CC(P(=O)(OCOC(=O)C(C)(C)C)OCOC(=O)C(C)(C)C)P(=O)(OCOC(=O)C(C)(C)C)OCOC(=O)C(C)(C)C [compound 24] | – | inhibition of growth
